Five molecules from patent publication US7884099B2 (priority 2007, dated 2011) can be followed below.

Structures are written as SMILES. Converted amounts (≈) assume the structure as drawn. Like-named read-outs stand apart in the source and are kept apart here.

In experiment [1] the test system is S. aureus rpoB^H481Y gyrA^S84L parC^S80F. Put plainly: MIC by microbroth dilution, triple mutant S. aureus. In kind it is cell-based. The conditions noted are these: Staphylococcus aureus, read-out: MIC S. aureus rpoB^H481Y gyrA^S84L parC^S80F. As to the method:
(§1) Representative compounds are assayed for antimicrobial activity as follows: Minimum Inhibitory Concentrations (MICs) against Staphylococcus aureus ATCC 29213, its isogenic derivative, and Escherichia coli ATCC 25922 were determined by the microbroth dilution method, as per NCCLS guidelines (National Committee for Clinical Laboratory Standards 2000).
A general note: Broth dilution looks for growth in wells or tubes with falling amounts of substance.

Experiment [2] deals with Staphylococcus aureus ATCC 29213. Put plainly: MIC by microbroth dilution, S. aureus ATCC 29213. In kind it is cell-based. As to the method: as §1
Experiment [3] concerns Escherichia coli ATCC 25922. Put plainly: MIC by microbroth dilution, E. coli ATCC 25922. In kind it is cell-based. As to the method: as §1
The test system of experiment [4] is S. aureus gyrA^S84L parC^S80F. The experiment in a line: MIC by microbroth dilution, quinolone-resistant S. aureus gyrA S84L parC S80F. In kind it is cell-based, Staphylococcus aureus. The settings on record: for MIC: Staphylococcus aureus, read-out: MIC S. aureus gyrA^S84L parC^S80F. As to the method:
as §1

Another experiment concerns S. aureus rpoB^H481Y. The experiment in a line: MIC by microbroth dilution, rifamycin-resistant S. aureus rpoB H481Y. In kind it is cell-based, Staphylococcus aureus. The settings on record: for MIC: Staphylococcus aureus, read-out: MIC S. aureus rpoB^H481Y. As to the method: as §1
Experiment [5] relates to Wild-type and Genetically-Defined Resistant Strains of Bacteria. The experiment in a line: Antibacterial activity against wild-type and genetically-defined resistant strains (overall statement on Table 1). In kind it is cell-based. The conditions noted are these: summary of Table 1. As to the method: as §1
Setting [6] is: ATCC29213, read-out: MIC S. aureus ATCC# 29213.
Setting [7] is: ATCC25922, read-out: MIC E. coli ATCC# 25922.
Where [8] appears, read: ATCC29213, wild-type, microbroth dilution, NCCLS, read-out: MIC S. aureus ATCC# 29213.
Setting [9] is: ATCC25922, microbroth dilution, NCCLS, read-out: MIC E. coli ATCC# 25922.

As a reminder, the MIC is the lowest concentration that inhibits growth of the organism. As to `CO[C@H]1/C=C/O[C@@]2(C)Oc3c(C)c(O)c4c(=O)c(c5oc6cc(N7CCC(N(C)C8([C@@H]9CCN(c%10c(F)cn%11c(=O)c(C(=O)O)cc(C%12CC%12)c%11c%10C)C9)CC8)CC7)cc(O)c6nc-5c4c3C2=O)NC(=O)/C(C)=C\C=C\[C@H](C)[C@H](O)[C@@H](C)[C@@H](O)[C@@H](C)[C@H](OC(C)=O)[C@@H]1C` [Example 1], the minimal inhibitory concentration (MIC) is 2 µg/mL (≈ 1.56 µM) in experiment [1]; under 0.004 µg/mL in experiment [2] (setting [6]); 0.5 µg/mL (≈ 0.39 µM) in experiment [3] (setting [7]); under 0.004 µg/mL in experiment [4]; 0.12 µg/mL (≈ 0.0936 µM) in the experiment with S. aureus rpoB^H481Y.

Take `COc1c(N2CC[C@@H](C3(N(C)C4CCN(c5cc(O)c6nc7c8c9c%10c(C)c(O)c8c(=O)c(c-7oc6c5)NC(=O)/C(C)=C\C=C\[C@H](C)[C@H](O)[C@@H](C)[C@@H](O)[C@@H](C)[C@H](OC(C)=O)[C@H](C)[C@@H](OC)/C=C/O[C@@](C)(O%10)C9=O)CC4)CC3)C2)c(F)cc2c(=O)c(C(=O)O)cn(C3CC3)c12` [Example 2, (R)-5′-[4-[1-[1-(3-Carboxy-1-cyclopropyl-6-fluoro-8-methoxy-4-oxo-1,4-dihydro-quinoline-7-yl)-pyrrolidin-3-yl-cyclopropyl-methyl]-amino]-piperidin-1-yl]-3′-hydroxy-benzoxazinorifamycin]: the MIC in experiment [1] was 4 µg/mL (≈ 3.08 µM); in experiment [2] (setting [6]), 0.008 µg/mL (≈ 0.00617 µM); in experiment [3] (setting [7]), 4 µg/mL (≈ 3.08 µM); in experiment [4] it was 0.016 µg/mL (≈ 0.0123 µM); in the experiment on S. aureus rpoB^H481Y, 0.5 µg/mL (≈ 0.385 µM). Also, the “antibacterial activity (in words)” value in experiment [5] is given as “potent antibacterial activity”.

Take `COc1c(N2CCN(c3cc(O)c4nc5c6c7c8c(C)c(O)c6c(=O)c(c-5oc4c3)NC(=O)/C(C)=C\C=C\[C@H](C)[C@H](O)[C@@H](C)[C@@H](O)[C@@H](C)[C@H](OC(C)=O)[C@H](C)[C@@H](OC)/C=C/O[C@@](C)(O8)C7=O)CC2)c(F)cc2c(=O)c(C(=O)O)cn(C3CC3)c12` [Example 3, 5′-[4-(3-Carboxy-1-cyclopropyl-6-fluoro-8-methoxy-4-oxo-1,4-dihydroquinolin-7-yl)-piperazin-1-yl]-3′-hydroxy-benzoxazinorifamycin]: the MIC was 8 µg/mL (≈ 6.9 µM) in experiment [1]; 0.008 µg/mL (≈ 0.0069 µM) in experiment [2] (setting [6]); 4 µg/mL (≈ 3.45 µM) in experiment [3] (setting [7]); 0.008 µg/mL (≈ 0.0069 µM) in experiment [4]; 0.24 µg/mL (≈ 0.207 µM) in the experiment with S. aureus rpoB^H481Y. Moreover, the “antibacterial activity (in words)” value in experiment [5] is “potent antibacterial activity”.

Turning to `O=C(O)c1cn(C2CC2)c2cc(N3CCNCC3)c(F)cc2c1=O` [ciprofloxacin, reference compound], the MIC was over 32 µg/mL in experiment [1]; 0.24 µg/mL (≈ 0.724 µM) in experiment [2] (setting [8]); 0.008 µg/mL (≈ 0.0241 µM) in experiment [3] (setting [9]); over 32 µg/mL in experiment [4]; 0.24 µg/mL (≈ 0.724 µM) in the experiment with S. aureus rpoB^H481Y. In experiment [4] (mutations in gyrase and topoisomerase IV), the “activity against quinolone-resistant S. aureus gyrA^S84L parC^S80F (in words)” value is recorded as “not as effective”.

Turning to `CO[C@H]1/C=C/O[C@@]2(C)Oc3c(C)c(O)c4c(O)c(c(/C=N/N5CCN(C)CC5)c(O)c4c3C2=O)NC(=O)/C(C)=C\C=C\[C@H](C)[C@H](O)[C@@H](C)[C@@H](O)[C@@H](C)[C@H](OC(C)=O)[C@@H]1C` [rifampin, reference compound], the minimal inhibitory concentration (MIC) is over 64 µg/mL in experiment [1]; 0.008 µg/mL (≈ 0.00972 µM) in experiment [2] (setting [8]); 8 µg/mL (≈ 9.72 µM) in experiment [3] (setting [9]); 0.008 µg/mL (≈ 0.00972 µM) in experiment [4]; over 64 µg/mL in the experiment with S. aureus rpoB^H481Y. Also, the “activity against rifamycin-resistant S. aureus rpoB^H481Y (in words)” value with S. aureus rpoB^H481Y (mutation in RNA polymerase) is given as “not as effective”.
